Experimental data published in patent US20210196724A1, “BIARYL COMPOSITIONS AND METHODS FOR MODULATING A KINASE CASCADE” (Athenex, Inc., priority 2016, published 2021).

What was measured:
[1] = tested on: GL261 cells, sub-cutaneous; test: Re-challenge of long-term survivors with sub-cutaneous GL261 cells; type: in vivo, C57BL/6 mice; settings: long term survival (LTS) mice after Compound 121 oral therapy, not treated in re-challenge phase
Procedure: The anti-tumor activity of Compound 121, as a single agent, was studied in the GL261 murine model of human glioblastoma. Murine GL261 glioblastoma cells were injected intra-cranially into syngeneic, immune-competent hosts (C57BL/6). In order for oral therapeutics to be effective, it is required that the therapeutic be able to cross the blood-brain barrier in order to achieve sufficient levels in the brain to exert an anti-tumor effect. Survival was the major endpoint for the study. The mice either succumbed to the tumor or were euthanized based on severity of tumor-dependent morbidity. Mice that achieved long-term survival (>80 days) were re-challenged with a sub-cutaneous injection of GL261 cells to assess the development of a durable immune response to GL261. Mice that underwent the re-challenge phase were not treated with Compound 121.
Re-challenge phase: Mice surviving past 80 days were injected with GL261 cell subcutaneously on Day 93. A control group (naïve C57BL/6 mice, N=5) were also injected with GL261 cells subcutaneously. Tumor volumes were calculated from bidimensional caliper measurements every 3 to 4 days. Further, all mice were administered oral doses of a Bifidobacterium mixture on three separate occasions. The objective of the administration of Bifidobacterium was to transiently modify the intestinal microbiome as a means to influence the immune response to GL261. […]

U87 cells = test: MTT cell growth inhibition (GI50), U87; type: cell-based, human; settings: 3 days
Procedure: The drug concentration required to block net cell growth by 50% relative to a control sample is measured as the GI50. The GI50s for several of the compounds of the application were assayed as described.
MTT assay: U87 and GL261 cells were seeded in 96-well plate (6×10^3 cells in 100 μl of DMEM+10% FBS media per well) and incubated overnight at 37° C. with 5% CO2. All test compounds were diluted (10 point 2-fold serial dilution) in a separate 96-well plate to yield 10× of final concentrations (0.5-256 nM). A volume of 11 μl of 10× dilutions was added to appropriate wells (n=3). To value (reflecting the starting number of cells upon drug treatment) was determined by following steps as described below. After 3 days incubation at 37° C. with 5% CO2, 10 μl of MTT solution (5 mg/ml in PBS) was added to each well and plates were incubated at 37° C. for 3 h to allow MTT to form formazan crystals by reacting with metabolically active cells. 100 μl of 20% SDS was added to each well and plates were incubated overnight at 37° C. with 5% CO2. Afterward, OD570 was measured using microplate reader. The cell growth percentage of control was calculated according to percentage of control=(T−T0)/(C−T0)×100% or OD value of the test well exposure to test drug—OD value at time zero/(OD of the control well without drug treatment−OD value at time zero)×100%. Growth inhibition curves and GI50 were determined using GraphPad Prism 5 software.

[2] = tested on: U87-luc human glioblastoma subcutaneous xenograft; test: U87-luc human glioblastoma subcutaneous xenograft tumor model; type: in vivo, athymic nude mice
Text: The anti-tumor activity of Compound 121, as a single agent, was studied in a U87-luc human glioblastoma subcutaneous xenograft tumor model. Significant endpoints were used to assess the treatment effects on subcutaneous tumor growth, as determined by tumor growth inhibition.
Human glioblastoma U87 cells (1×10^6 cells) were implanted into the right flank of athymic nude mice via subcutaneous injection. Dosing was initiated when the average tumor size reached 90-100 mm^3, which was designated as Day 1.
Compound 121 was dosed at 5 mg/kg once per day through Days 1-7 and dosed 2.5 mg/kg once per day through Days 15-21. A control group of mice (N=7) was administered a vehicle per the same schedule. Tumor volume was determined every 2 to 3 days via bidimensional caliper measurements. Body weight and general observations were recorded.
The mice were euthanized once the tumor reached 2000 mm^3 in volume.
Tumor growth inhibition (TGI) was calculated with the following formula:
TGI=(1−(mean volume of treated tumors)/(mean volume of control tumors))×100.

[3] = Brain permeability (brain:plasma ratio); type: in vivo; settings: read-out: Brain:Plasma (B:P) Average
Procedure: Brain permeability can be measured by various methods known in the art. For example, brain permeability can be measured by calculating the ratio between the concentration of a compound of the application in the brain and the concentration of the compound in the plasma (i.e., BP ratio). In one aspect, a compound of the application has a B:P ratio of at least 1.0, 1.1, 1.2, 1.3, 1.4, 1.5, 1.6, 1.7, 1.8, 1.9, or 2.0 at 1 hour after administration of the compound to a subject. In one aspect, a compound of the application has a B:P ratio of at least 1.5, 1.6, 1.7, 1.8, 1.9, or 2.0 at 1 hour after administration of the compound to a subject. In one aspect, a compound of the application has a B:P ratio of at least 1.4, 1.5, 1.6, 1.7, 1.8, 1.9, 2.0, 2.1, 2.2, or 2.3 at 2 hours after administration of the compound to a subject. In one aspect, a compound of the application has a B:P ratio of at least 1.9, 2.0, 2.1, 2.2, or 2.3 at 2 hours after administration of the compound to a subject. In one aspect, a compound of the application has a B:P ratio of at least 1.7, 1.8, 1.9, 2.0, 2.1, 2.2, 2.3, 2.4, or 2.5 at 4 hours after administration of the compound to a subject. In one aspect, a compound of the application has a B:P ratio of at least 2.2, 2.3, 2.4, or 2.5 at 4 hours after administration of the compound to a subject.

[4] = Day 12, orally dosed 5 mg/kg once per day Days 1-7

For `Cc1cc(N2CCOC[C@@H]2C)ccc1-c1ccc(CC(=O)NCc2ccc(F)cc2)nc1` [Compound 121], the “Tumor growth after sub-cutaneous re-challenge with GL261 cells” value [1] was “Tumors failed to grow in both LTS mice”, the GI50 (U87 cells) was 5.2 nM and the “Tumor growth (tumor volumes in individual mice over time)” value ([2]; 5 mg/kg once per day Days 1-7, 2.5 mg/kg once per day Days 15-21) was “repressed tumor growth”. For the same molecule, the “Mean tumor volume compared to the control group” value ([2]; Day 12, P<0.05) was “significantly reduced”, the “% TGI (tumor growth inhibition)” value [2, 4] was 76.8% and the “Mean Tumor Volume ± SEM” value [2, 4] was 442.9 ± 67.2 mm3. For the same molecule, the “Time to terminal sacrifice (based on tumor volume) compared to control” value ([2]; P<0.05, 5 mg/kg Days 1-7, 2.5 mg/kg Days 15-21) was “significantly extended”, the Kp at 0.25 h ([3]; time point 0.25 h) was 1.08 and the Kp at 0.5 h ([3]; time point 0.5 h) was 1.37. The Kp at 1 h ([3]; time point 1 h) was 1.53, the Kp at 2 h ([3]; time point 2 h) was 1.93 and the Kp at 4 h ([3]; time point 4 h) was 2.29. It also gave a Kp at 6 h ([3]; time point 6 h) of 1.66 and a Kp at 8 h ([3]; time point 8 h) of 1.24.
